{"source": "patent US10398786B2", "about": "“Therapeutic gene cocktail for heart regeneration” (Academia Sinica, priority 2015, dated 2019)", "system": "adult CMs of OSKM transgenic mice", "assay": "doxycycline injection into OSKM transgenic mice, adult CMs isolated after two days", "type": "in vivo", "conditions": "two days after doxycycline treatment", "procedure": "Reverse transcription were completed following the protocol of SuperScript III Reverse-Transcriptase kit (Life Technology). SYBR Green Real-Time PCR master mixes were used to quantify each gene expression, and GAPDH were performed for normalization.\nAdult ventricular CMs were isolated from male mice on a Langendorff apparatus. The hearts were removed from the anaesthetized mice after heparinization for 10 mins, and then were cannulated for retrograde perfusion with Ca^2+-free Tyrode solution (NaCl 120.4 mmol/L, KCl 14.7 mmol/L, KH2PO4 0.6 mmol/L, Na2HPO4 0.6 mmol/L, MgSO4 1.2 mmol/L, HEPES 1.2 mmol/L, NaHCO3 4.6 mmol/L, Taurine 30 mmol/L, BDM 10 mmol/L, Glucose 5.5 mmol/L).\nAfter 3-minutes of perfusion, the solution mixed with Ca^2+-free Tyrode solution supplemented with collagenase B (0.4 mg/g body weight, Roche), collagenase D (0.3 mg/g body weight, Roche) and protease type XIV (0.05 mg/g body weight, Sigma-Aldrich) were used to digest the hearts. After digestion, the ventricles were cut from the cannula and teased into small pieces in the digestion solution neutralized by the Ca^2+-free Tyrode solution containing 10% FBS. Adult CMs were dissociated from the digested tissues by gentle pipetting and collected after removing the un-digested tissues by filtering through a nylon mesh of 250 μm pore size. […]"}
{"smiles": "C[C@H]1c2cccc(O)c2C(=O)C2=C(O)[C@]3(O)C(=O)C(C(N)=O)=C(O)[C@@H](N(C)C)[C@@H]3[C@@H](O)[C@@H]21", "note": "[doxycycline]", "values": [{"measurement": "H3P+ population of adult CMs relative to control", "result": 2, "unit": "×"}]}
